Experimental data reported in patent US9278992B2, “Function-selective vitamin D receptor agonist” (Nihon University, priority 2007, dated 2016).
Entries after “also recorded” stand apart in the source; their conditions may differ.

How the values were obtained:
myeloid leukemia cells = details: compared with 1,25(OH)2D3; Honma et al. 1983; cited from earlier work
[1] = Honma et al. 1983; cited from earlier work
[2] = Example 3: mice injected intraperitoneally, body weight and plasma calcium; details: mouse, in vivo, ip
[3] = test system: Cyp24a1, calbindin D9k, Trpv6, Trpv5; test: Example 5: oral administration to mice, mRNA expression in kidney and intestinal mucosa; format: in vivo
Text: Blood was collected from the tail on days 0, 2, 4, 6, and 8, and by heart puncture on day 12. […]
(§1) Next, the in vivo effects of orally administered lithocholic acid derivatives (dissolved in corn oil) were examined.

[4] = test system: Cyp24a1, calbindin D9k, Trpv6, Trpv5; test: Example 5: intraperitoneal administration to mice, mRNA expression in kidney and intestinal mucosa; format: in vivo; details: day 8
Text: Blood was collected by heart puncture on day 8 and tissue mRNAs on day 8 were examined.

VDR target gene CYP24 = test: Example 3: mice injected intraperitoneally, expression of VDR target gene CYP24 in kidney; format: in vivo; details: intraperitoneal, every other day, day 8
[5] = target: T1, farnesoid X receptor (FXR) (Homo sapiens, UniProt Q96RI1); test: Effect on FXR (FIG. 1); details: 18 μM
T1 sequence (Q96RI1 1-486): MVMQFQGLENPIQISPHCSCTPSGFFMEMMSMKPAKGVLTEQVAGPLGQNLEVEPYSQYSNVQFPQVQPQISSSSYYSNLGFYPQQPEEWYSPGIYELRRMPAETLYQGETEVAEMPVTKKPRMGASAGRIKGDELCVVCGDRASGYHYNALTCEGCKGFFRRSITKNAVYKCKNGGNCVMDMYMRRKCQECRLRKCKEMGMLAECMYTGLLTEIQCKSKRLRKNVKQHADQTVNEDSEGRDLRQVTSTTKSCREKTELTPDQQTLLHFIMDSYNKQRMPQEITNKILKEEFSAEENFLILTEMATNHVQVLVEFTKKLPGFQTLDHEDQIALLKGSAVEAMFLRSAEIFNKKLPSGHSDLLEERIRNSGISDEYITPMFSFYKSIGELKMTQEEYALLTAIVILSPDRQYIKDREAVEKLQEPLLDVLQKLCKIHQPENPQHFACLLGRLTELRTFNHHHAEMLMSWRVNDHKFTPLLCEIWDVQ

[6] = target: T2, G protein-coupled bile acid receptor 1 (GPBAR1) (Homo sapiens, UniProt Q8TDU6); test: Effect on GPBAR1 (FIG. 1); details: 10 μM
T2 sequence (Q8TDU6 1-330): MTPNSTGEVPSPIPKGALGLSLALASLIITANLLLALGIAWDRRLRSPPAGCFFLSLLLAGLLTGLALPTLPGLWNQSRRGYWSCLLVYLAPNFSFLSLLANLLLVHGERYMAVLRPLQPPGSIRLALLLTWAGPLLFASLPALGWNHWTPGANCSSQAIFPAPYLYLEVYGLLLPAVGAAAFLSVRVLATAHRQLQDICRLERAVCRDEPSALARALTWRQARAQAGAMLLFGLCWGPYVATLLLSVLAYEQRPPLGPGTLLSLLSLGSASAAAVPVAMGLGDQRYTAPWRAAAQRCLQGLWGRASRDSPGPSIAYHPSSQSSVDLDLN

[7] = test system: Human myeloid leukemia HL60 cells; test: Differentiation of myeloid leukemia HL60 cells (Nitro blue tetrazolium-reducing activity); format: cell-based; details: for induction of differentiation marker (Nitro blue tetrazolium-reducing activity), HL60 cells: 3 days
VDR [8] = target: T3, VDR (Homo sapiens, UniProt P11473); test: VDR activation, GAL4-VDR luciferase reporter in HEK293 cells; details: compared with lithocholic acid and lithocholic acid acetate
T3 sequence (P11473 127-423 limits assumed): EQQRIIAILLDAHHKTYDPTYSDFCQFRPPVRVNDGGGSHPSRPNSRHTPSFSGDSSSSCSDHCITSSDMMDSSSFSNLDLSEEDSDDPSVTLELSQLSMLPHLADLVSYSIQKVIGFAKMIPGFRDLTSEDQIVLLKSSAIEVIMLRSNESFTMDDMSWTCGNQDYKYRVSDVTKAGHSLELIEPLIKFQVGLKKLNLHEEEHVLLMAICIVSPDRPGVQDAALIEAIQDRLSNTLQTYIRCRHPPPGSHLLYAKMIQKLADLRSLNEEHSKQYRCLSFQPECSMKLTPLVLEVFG
Protocol: Cells were solubilized 16 to 18 hours later, and evaluated for the luciferase activity.

U937 cells = test: Differentiation markers of myeloid leukemia U937 cells; format: cell-based
[9] = Example 5: intraperitoneal administration to mice, body weight and plasma calcium; format: in vivo; details: 0.7 mmol/kg
Text: […]. […] […]. Blood was collected by heart puncture on day 8 and tissue mRNAs on day 8 were examined.

[10] = Example 5: oral administration to mice, body weight and plasma calcium; details: oral (gavage), 1 mmol/kg
Text: Blood was collected from the tail on days 0, 2, 4, 6, and 8, and by heart puncture on day 12. Tissue mRNAs on day 12 were examined. * indicates p<0.05; ** indicates p<0.01; *** indicates p<0.001, compared with vehicle control.
as §1

leukemic cells = details: cited from earlier work
VDR [11] = target: T4, VDR (Homo sapiens, UniProt P11473); details: Non-Patent Documents 2 and 3; cited from earlier work
T4 sequence (P11473 1-427): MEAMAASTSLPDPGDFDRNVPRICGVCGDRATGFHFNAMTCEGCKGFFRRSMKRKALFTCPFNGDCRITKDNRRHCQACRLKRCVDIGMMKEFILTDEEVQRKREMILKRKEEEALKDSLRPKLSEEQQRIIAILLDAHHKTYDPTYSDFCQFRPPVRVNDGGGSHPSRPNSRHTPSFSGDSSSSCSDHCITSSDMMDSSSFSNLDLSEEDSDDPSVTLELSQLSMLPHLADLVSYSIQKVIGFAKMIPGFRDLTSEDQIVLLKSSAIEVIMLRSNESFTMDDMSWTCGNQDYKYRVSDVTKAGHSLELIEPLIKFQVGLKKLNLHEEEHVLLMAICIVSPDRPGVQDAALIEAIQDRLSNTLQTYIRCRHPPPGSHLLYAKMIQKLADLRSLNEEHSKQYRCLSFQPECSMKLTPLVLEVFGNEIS

[12] = target: T1, farnesoid X receptor (FXR); details: Non-Patent Documents 3 and 4; cited from earlier work

C=C1/C(=C\C=C2/CCC[C@]3(C)[C@@H]([C@H](C)CCCC(C)C)CC[C@@H]23)C[C@@H](O)C[C@@H]1O [1α-hydroxyvitamin D3]
survival time of the mice inoculated with leukemia cells (myeloid leukemia cells): more effective than 1,25(OH)2D3 in increasing the survival time | conversion to 1,25-dihydroxyvitamin D3 after injection [1]: rapidly converted to 1,25-dihydroxyvitamin D3 | body weight of mice [2]: decreased the body weight of mice | intestinal mucosa Cyp24a1 expression ([3]; 1 day single oral dose (data not shown)): not observed | intestinal mucosa Cyp24a1 expression ([3]; 10 day oral administration, 12.5 nmol/kg): not increased | intestinal mucosa Cyp24a1 expression ([4]; 12.5 nmol/kg): induced the intestinal mucosa Cyp24a1 expression | kidney Cyp24a1 expression ([4]; 12.5 nmol/kg): effectively induced the expression | kidney Trpv5 expression ([4]; 12.5 nmol/kg): effectively induced the expression | kidney Trpv6 expression ([4]; 12.5 nmol/kg): effectively induced the expression | kidney calbindin D9k expression ([4]; 12.5 nmol/kg): effectively induced the expression

CCC(=O)O[C@@H]1CC[C@@]2(C)[C@H](CC[C@@H]3[C@@H]2CC[C@]2(C)[C@@H]([C@H](C)CCC(=O)O)CC[C@@H]32)C1 [lithocholic acid propionate]
expression of the VDR target gene CYP24 in kidney (VDR target gene CYP24): induced the expression of the VDR target gene in the organ | potency on FXR [5]: extremely weak potency on FXR | effects on GPBAR1 [6]: extremely weak effects | body weight of mice [2]: did not adversely affect the body weight or the blood calcium level | induction of differentiation markers, HL-60 cells [7]: induced the differentiation markers | induction of differentiation marker (Nitro blue tetrazolium-reducing activity), HL60 cells ([7]; 10 μM): weakly | induction of differentiation marker (Nitro blue tetrazolium-reducing activity), HL60 cells ([7]; 30 μM): effectively | selectivity as VDR ligand (VDR versus FXR and GPBAR1) (VDR [8]): more selective VDR ligand (activating agent) than lithocholic acid and lithocholic acid acetate | kidney Cyp24a1 expression ([3]; oral (gavage), 0.7 mmol/kg and 1 mmol/kg, day 12): induced the kidney Cyp24a1 expression as effectively as 1α(OH)D3 | kidney calbindin D9k expression ([3]; oral (gavage), day 12): not induced | induction of differentiation markers, U937 cells (U937 cells): induced the differentiation markers | intestinal mucosa target gene expression ([4]; 0.7 mmol/kg): not effective in inducing intestinal mucosa target gene expression | kidney Cyp24a1 expression ([4]; 0.7 mmol/kg): induced the expression of kidney Cyp24a1 as effectively as 1α(OH)D3

lithocholic acid acetate
body weight [9]: did not decrease their body weight | body weight [10]: did not affect the body weight or plasma calcium | plasma calcium [10]: did not affect the body weight or plasma calcium | differentiation of leukemic cells (leukemic cells): induced the differentiation of leukemic cells | function and potency as VDR ligand (VDR [11]): activated VDR more potently than lithocholic acid; also recorded: more potency on VDR than lithocholic acid | induction of differentiation marker (Nitro blue tetrazolium-reducing activity), HL60 cells ([7]; 10 μM): weakly | induction of differentiation marker (Nitro blue tetrazolium-reducing activity), HL60 cells ([7]; 30 μM): effectively | activity on FXR [12]: weaker than that of chenodeoxycholic acid and comparable to that of lithocholic acid
